Data on one compound can be found in US7411039B2, “GLP-2 compounds, formulations, and uses thereof” (Novo Nordisk A/S, priority 2002, dated 2008).

The subject of experiment [1] is Dextran sulfate (DS)-induced colitis. The following applies: 350 ng or 750 ng s.c. twice daily for 9-10 days, cited from earlier work.
Experiment [2] relates to growth of the small intestine in mice. The experiment is classed as in vivo. The following applies: for Small intestinal weight, Mean ± SD / Small intestinal weight/body weight, Mean ± SD: group mean. The source says:
Bioassay in Mice. Dose-Response Study of GLP-2 Derivatives. • Table 3. Model parameter estimates following nonlinear regression analysis of dose and small intestinal weights relative to body weight. • Table 4. Model parameter estimates following nonlinear regression analysis of dose and small intestinal weights. • Table 5. Body weight, small intestinal weight and relative small intestinal weight of mice treated with L17K(3-(tetradecanoylamino)propionyl)/K30R-[…]. • Table 6. […]. Body weight, small intestinal weight and relative small intestinal weight of mice treated with A2G-[…]. • Table 8. Body weight, small intestinal weight and relative small intestinal weight of control mice.
The following GLP-2 derivatives and analog were tested: • 1. L17K(3-(tetradecanoylamino)propionyl)/K30R-[…]. • 2. L17K(3-(hexadecanoylamino)propionyl)/K30R-[…]. • 3. A2G-[…]. All derivatives were dissolved and diluted in buffer containing:
Disodiumhydrogenphosphate 1.42 mg/ml, Mannitol 36.9 mg/ml, Phenol 5 mg/ml, pH 8.0.
189 female C57b1 mice were used in the study. All animals were divided into four groups:
• Group 1: Controls • Group 2: L17K(3-(tetradecanoylamino)propionyl)/K30R-[…] • Group 3: L17K(3-(hexadecanoylamino)propionyl)/K30R-[…] • Group 4: A2G-[…] Dosing
All animals received a daily subcutaneous injection of 100 pi for 10 days with the following doses:
At Day 10 the animals were weighted before they were sacrificed. The intestine was carefully removed from each animal and the small intestine dissected, rinsed with saline and weighted.
Body weight, small intestinal weight and small intestinal weight relative to body weight were reported for all animals and used generating the dose-response relationship. The treatment-induced increase in both absolute and relative small intestinal weight is calculated for each treatment group, since this is considered the pharmacologically relevant efficacy parameter.
A generalised Michaelis-Menten model, with shape factor γ corresponding to the Hillslope in the semilogarithmic dose-response curve and E0 representing the background efficacy level at D=0, was used as dose-response model. Emax is the maximal effect observed and ED50 is the dose that gives an effect equal to 50% of Emax. The model was used because of the higher flexibility compared to a four parameter logistic dose-response model (1). The model was fitted to data using nonlinear regression in order to determine estimates for Emax, ED50, γ and E0.
[formula] The goodness of fit was evaluated by visual inspection of plots showing observed data points together with fitted curves and residuals plots. Parameter estimates are presented together with CV % and 95% C.I.
In order to account for the variability in the background efficacy level, control data were included in the nonlinear regression analysis as D=0 for all three treatment groups.
The nonlinear regression analyses were performed using WinNonlin Professional, version 3.1, Pharsight. The nonlinear regression was performed using the Gauss-Newton (Levenberg and Hartley) algorithm.

Where [3] appears, read: background efficacy level at D=0, nonlinear regression of dose-response, mice, daily s.c. for 10 days.
Setting [4] is: dose level A, 33 μg daily s.c. for 10 days.
[5] abbreviates: dose level B, 16.5 μg daily s.c. for 10 days.
Where [6] appears, read: dose level C, 8.25 μg daily s.c. for 10 days.
Setting [7] is: dose level D, 4.125 μg daily s.c. for 10 days.
[8] abbreviates: dose level E, 2.063 μg daily s.c. for 10 days.
[9] abbreviates: dose level F, 1.031 μg daily s.c. for 10 days.
Setting [10] is: dose level G, 0.512 μg daily s.c. for 10 days.
The mark [11] stands for this setting: nonlinear regression of dose-response.
[12] abbreviates: nonlinear regression of dose-response, mice, daily s.c. for 10 days.
Where [13] appears, read: treatment-induced increase, secondary parameter of curve fitting.

Where two headings read alike, the source gives them in different places.

For the compound `CC[C@H](C)[C@H](NC(=O)[C@H](Cc1ccccc1)NC(=O)[C@H](CC(=O)O)NC(=O)[C@H](CCCNC(=N)N)NC(=O)[C@H](C)NC(=O)[C@H](C)NC(=O)[C@H](CC(C)C)NC(=O)[C@H](CC(N)=O)NC(=O)[C@H](CC(=O)O)NC(=O)[C@H](CC(C)C)NC(=O)[C@@H](NC(=O)[C@@H](NC(=O)[C@H](CC(N)=O)NC(=O)[C@H](CCSC)NC(=O)[C@H](CCC(=O)O)NC(=O)[C@H](CC(=O)O)NC(=O)[C@H](CO)NC(=O)[C@H](Cc1ccccc1)NC(=O)[C@H](CO)NC(=O)CNC(=O)[C@H](CC(=O)O)NC(=O)CNC(=O)[C@@H](N)Cc1c[nH]cn1)[C@@H](C)O)[C@@H](C)CC)C(=O)N[C@@H](CC(N)=O)C(=O)N[C@@H](Cc1c[nH]c2ccccc12)C(=O)N[C@@H](CC(C)C)C(=O)N[C@H](C(=O)N[C@@H](CCC(N)=O)C(=O)N[C@H](C(=O)N[C@@H](CCCCN)C(=O)N[C@H](C(=O)N[C@H](C(=O)N[C@@H](CC(=O)O)C(=O)O)[C@@H](C)O)[C@@H](C)CC)[C@@H](C)O)[C@@H](C)CC` [A2G-GLP-2(1-33)], the histology of colon result in experiment [1] (DS mice) is “exhibited a greater proportion of intact mucosal epithelium, increased colon length, crypt depth and mucosal area”. Further, in experiment [1] (mice receiving 5% DS in the drinking water), the body weight loss entry is on record as “lost significantly less body weight”. Also, the “E0, parameter estimate (CV %), small intestinal weight” value in experiment [2] (setting [3]) was 1.1095 (2.0) g. Also, the “E0, parameter estimate (CV %), small intestinal weight relative to body weight” value in experiment [2] (setting [3]) is on record as 0.0425 (2.4). Also, the “Small intestinal weight, Mean ± SD” value worked out at 1.2300 ± 0.1602 g in experiment [2] (setting [4]); 1.1775 ± 0.1337 g in experiment [2] (setting [5]); 1.2463 ± 0.1235 g in experiment [2] (setting [6]); 1.1713 ± 0.1687 g in experiment [2] (setting [7]); 1.0750 ± 0.1124 g in experiment [2] (setting [8]); 1.1688 ± 0.0923 g in experiment [2] (setting [9]). Moreover, the “Small intestinal weight, Mean ± SD” value in experiment [2] (setting [10]) worked out at 1.1075 ± 0.1014 g. Also, the “Small intestinal weight/body weight, Mean ± SD” value in experiment [2] (setting [4]) stood at 0.0501 ± 0.0057; in experiment [2] (setting [5]) it was 0.0489 ± 0.0042; in experiment [2] (setting [6]), 0.0484 ± 0.0052; in experiment [2] (setting [7]), 0.0448 ± 0.0054; in experiment [2] (setting [8]), 0.0443 ± 0.0027; in experiment [2] (setting [9]) it was 0.0461 ± 0.0041. In addition, the “Small intestinal weight/body weight, Mean ± SD” value in experiment [2] (setting [10]) is recorded as 0.0436 ± 0.0036. In experiment [2] (setting [11]), the “γ (shape factor, Hillslope), parameter estimate (CV %), small intestinal weight” value is on record as 8.4169 (1869). In addition, in experiment [2] (setting [11]), the “γ (shape factor, Hillslope), parameter estimate (CV %), small intestinal weight relative to body weight” value is reported as 0.6625 (109). Further, the “Emax, parameter estimate (CV %), small intestinal weight” value in experiment [2] (setting [12]) is listed as 1.2180 (2.3) g. Also, the “Emax, parameter estimate (CV %), small intestinal weight relative to body weight” value in experiment [2] (setting [12]) is 0.0548 (33.3). For the same compound, the “Emax − E0, parameter estimate (CV %), small intestinal weight” value in experiment [2] (setting [13]) was 0.1085 (34.8) g. Also, the “Emax − E0, parameter estimate (CV %), small intestinal weight relative to body weight” value in experiment [2] (setting [13]) is 0.0123 (151).
